Results taken from ChEMBL document CHEMBL1145633, “Inhibitors of the tyrosine kinase EphB4. Part 1: Structure-based design and optimization of a series of 2,4-bis-anilinopyrimidines” (Bioorg Med Chem Lett, 2008).

Molecular target: T1, Ephrin type-B receptor 4 (Homo sapiens, UniProt P54760)
T1 sequence (P54760 whole entry): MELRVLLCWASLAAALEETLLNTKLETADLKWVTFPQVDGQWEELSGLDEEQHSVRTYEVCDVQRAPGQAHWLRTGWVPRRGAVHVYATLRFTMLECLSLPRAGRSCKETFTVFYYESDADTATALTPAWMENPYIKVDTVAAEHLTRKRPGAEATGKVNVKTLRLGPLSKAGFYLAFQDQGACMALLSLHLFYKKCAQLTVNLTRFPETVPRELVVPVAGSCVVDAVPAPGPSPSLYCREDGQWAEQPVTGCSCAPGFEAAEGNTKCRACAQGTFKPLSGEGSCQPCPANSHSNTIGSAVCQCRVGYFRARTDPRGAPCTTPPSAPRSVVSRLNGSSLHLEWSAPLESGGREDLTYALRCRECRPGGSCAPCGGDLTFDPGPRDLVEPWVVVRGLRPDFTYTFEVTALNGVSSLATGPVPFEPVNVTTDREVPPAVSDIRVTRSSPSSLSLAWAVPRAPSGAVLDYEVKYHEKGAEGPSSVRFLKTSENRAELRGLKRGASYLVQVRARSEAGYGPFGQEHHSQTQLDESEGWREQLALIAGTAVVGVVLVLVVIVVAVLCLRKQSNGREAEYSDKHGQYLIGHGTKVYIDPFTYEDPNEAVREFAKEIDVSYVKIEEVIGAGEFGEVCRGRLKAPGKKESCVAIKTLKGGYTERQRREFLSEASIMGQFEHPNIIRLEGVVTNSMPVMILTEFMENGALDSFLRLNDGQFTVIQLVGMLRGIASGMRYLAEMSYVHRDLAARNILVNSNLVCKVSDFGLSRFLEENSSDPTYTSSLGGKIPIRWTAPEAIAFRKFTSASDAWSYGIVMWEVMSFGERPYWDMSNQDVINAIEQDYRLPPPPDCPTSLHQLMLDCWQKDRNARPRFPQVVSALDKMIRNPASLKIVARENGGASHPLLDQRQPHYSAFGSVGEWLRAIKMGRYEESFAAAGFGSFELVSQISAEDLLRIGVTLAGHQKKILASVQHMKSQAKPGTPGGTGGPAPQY
Assay: Inhibition of EphB4

| Structure (SMILES) | IC50 |
| --- | --- |
| Cc1ccccc1Nc1nccc(Nc2c(Cl)ccc3c2OCO3)n1 | 14 µM |
| COc1ccc(Nc2nccc(Nc3c(Cl)ccc4c3OCO4)n2)cc1 | 1.94 µM |
| CS(=O)(=O)c1ccc(Nc2nccc(Nc3c(Cl)ccc4c3OCO4)n2)cc1 | 0.63 µM |
| Clc1cccc(Nc2nccc(Nc3c(Cl)ccc4c3OCO4)n2)c1 | 1.33 µM |
| Fc1ccc(Nc2nccc(Nc3c(Cl)ccc4c3OCO4)n2)cc1 | 2.3 µM |
| NS(=O)(=O)c1ccccc1Nc1nccc(Nc2c(Cl)ccc3c2OCO3)n1 | 35.5 µM |
| Clc1ccc2c(c1Nc1ccnc(Nc3ccccc3N3CCOCC3)n1)OCO2 | 7.85 µM |
| COc1cccc(Nc2nccc(Nc3c(Cl)ccc4c3OCO4)n2)c1 | 0.64 µM |
| N#Cc1ccccc1Nc1nccc(Nc2c(Cl)ccc3c2OCO3)n1 | 20.5 µM |
| Clc1ccc2c(c1Nc1ccnc(Nc3ccc(N4CCOCC4)cc3)n1)OCO2 | 1 µM |
| CS(=O)(=O)c1ccccc1Nc1nccc(Nc2c(Cl)ccc3c2OCO3)n1 | 41 µM |
| Clc1ccccc1Nc1nccc(Nc2c(Cl)ccc3c2OCO3)n1 | 11.3 µM |
